Columns and labels:
[1] = test system: human ovarian cancer cell A2780; experiment: proliferation inhibitory activity against A2780 cells (CellTiter-Glo); type: cell-based; conditions: A2780, 72 h, 1 μM test compound, 3 days of culture, read-out: proliferation inhibitory rate (%) of A2780 cells
Description: The proliferation inhibitory activity of the compound of the present invention against human ovarian cancer cell A2780 was evaluated by the following method.
Human ovarian cancer cells A2780 were seeded in a 384 well culture plate at 1000 cells in 30 μL of medium per well by using RPMI-1640 medium (Wako Pure Chemical Industries, Ltd.) containing 10% fetal bovine serum and penicillin/streptomycin. The next day, 10 μL of RPMI-1640 medium containing the test compound was added to the cells. After 3 days of culture, 20 μL of CellTiter-Glo Luminescent Cell Viability Assay solution (Promega, Fitchburg, Wis., US) was added. The luminescence signal was measured using EnVision (PerkinElmer, Waltham, Mass., US) and the inhibitory rate (%) of the test compound was calculated with a well free of seeding of cell as 100% inhibition.

human PRS protein = biological target: T1, human PRS protein (Homo sapiens, UniProt P07814); experiment: PRS inhibitory activity (ATP/[32P]pyrophosphate exchange enzyme reaction); type: biochemical; conditions: 300 nM test compound; recombinant human PRS (EPRS 998-1512); read-out: inhibitory rate (%) of PRS
T1 construct: to construct His-Avi-hEPRS (998-1512) expression plasmid; His tag (N); Avi tag (N); TEV cleavage site (ENLYFQ/GS, encoded by forward primer hEPRS-TEV-NheF) (N); made in house; host or cells: E. coli BL21(DE3)
T1 sequence (P07814 998-1512): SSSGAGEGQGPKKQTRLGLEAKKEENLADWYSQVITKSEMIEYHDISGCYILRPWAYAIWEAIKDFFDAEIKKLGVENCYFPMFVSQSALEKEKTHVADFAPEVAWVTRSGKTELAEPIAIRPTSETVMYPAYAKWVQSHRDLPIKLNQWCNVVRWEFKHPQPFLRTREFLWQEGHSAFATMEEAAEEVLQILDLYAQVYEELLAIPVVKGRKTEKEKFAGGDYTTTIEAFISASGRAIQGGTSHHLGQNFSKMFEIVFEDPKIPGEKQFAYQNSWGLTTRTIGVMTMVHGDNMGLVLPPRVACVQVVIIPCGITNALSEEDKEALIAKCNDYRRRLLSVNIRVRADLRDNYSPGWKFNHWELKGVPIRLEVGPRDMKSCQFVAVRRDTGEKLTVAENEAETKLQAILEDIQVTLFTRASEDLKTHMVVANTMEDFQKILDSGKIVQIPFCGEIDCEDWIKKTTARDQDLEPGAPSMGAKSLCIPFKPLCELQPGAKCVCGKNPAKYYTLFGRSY
Method in brief: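 His-Avi-tagged human EPRS catalytic domain (998-1512), E. coli-expressed, was preincubated 60 min with compound (enzyme added as 40 nM solution) in Tris pH 7.5, KCl, DTT, Tween 20 and MgCl2. The substrate solution contained 300 μM ATP, 160 μM L-proline, and 400 μM pyrophosphate with [32P]pyrophosphate; reaction ran 30 min at room temperature. Charcoal-captured label was counted, with enzyme-free wells taken as 100% inhibition.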

| Compound | inhibition at 1 µM [1] [%] | inhibition at 0.3 µM (human PRS protein) [%] |
| --- | --- | --- |
| Cn1cc(-c2cc(F)cc(CC(=O)Nc3cc(N4CC[C@@](C#N)(C5CC5)C4=O)cc(Br)n3)c2)cn1 [Example 97, N-(6-bromo-4-((3S)-3-cyano-3-cyclopropyl-2-oxopyrrolidin-1-yl)pyridin-2-yl)-2-(3-fluoro-5-(1-methyl-1H-pyrazol-4-yl)phenyl)acetamide] | 97 | 100 |
| N#C[C@@]1(C2CC2)CCN(c2ccnc(NC(=O)Cc3cccc(-c4cnn(CCCC(F)(F)F)c4)c3)c2)C1=O [Example 90, N-(4-((3S)-3-cyano-3-cyclopropyl-2-oxopyrrolidin-1-yl)pyridin-2-yl)-2-(3-(1-(4,4,4-trifluorobutyl)-1H-pyrazol-4-yl)phenyl)acetamide] | 61 | 98 |
| CC(C)Cn1cc(-c2cccc(CC(=O)Nc3cc(N4CC[C@@](C#N)(C5CC5)C4=O)ccn3)c2)cn1 [Example 68, N-(4-((3S)-3-cyano-3-cyclopropyl-2-oxopyrrolidin-1-yl)pyridin-2-yl)-2-(3-(1-isobutyl-1H-pyrazol-4-yl)phenyl)acetamide] | 51 | 98 |
| N#C[C@@]1(C2CC2)CCN(c2ccnc(NC(=O)Cc3cccc(-c4cnn(CC(F)(F)F)c4)c3)c2)C1=O [Example 58, N-(4-((3S)-3-cyano-3-cyclopropyl-2-oxopyrrolidin-1-yl)pyridin-2-yl)-2-(3-(1-(2,2,2-trifluoroethyl)-1H-pyrazol-4-yl)phenyl)acetamide] | 75 | 99 |
| Cc1cc(-c2cccc(CC(=O)Nc3cc(N4CC[C@@](C#N)(C5CC5)C4=O)ccn3)c2)sn1 [Example 48, N-(4-((3S)-3-cyano-3-cyclopropyl-2-oxopyrrolidin-1-yl)pyridin-2-yl)-2-(3-(3-methyl-1,2-thiazol-5-yl)phenyl)acetamide] | 61 | 100 |
| N#C[C@@]1(C2CC2)CCN(c2ccnc(NC(=O)Cc3cccc(-c4cnn(CCO)c4)c3)c2)C1=O [Example 67, N-(4-((3S)-3-cyano-3-cyclopropyl-2-oxopyrrolidin-1-yl)pyridin-2-yl)-2-(3-(1-(2-hydroxyethyl)-1H-pyrazol-4-yl)phenyl)acetamide] | 77 | 100 |
| Cc1cc(N2CC[C@@](C#N)(C3CC3)C2=O)cc(NC(=O)Cc2cccc(-c3cnn(C)c3C)c2)n1 [Example 98, N-(4-((3S)-3-cyano-3-cyclopropyl-2-oxopyrrolidin-1-yl)-6-methylpyridin-2-yl)-2-(3-(1,5-dimethyl-1H-pyrazol-4-yl)phenyl)acetamide] | 69 | 98 |
| COCCCn1cc(-c2cccc(CC(=O)Nc3cc(N4CC[C@@](C#N)(C5CC5)C4=O)ccn3)c2)cn1 [Example 74, N-(4-((3S)-3-cyano-3-cyclopropyl-2-oxopyrrolidin-1-yl)pyridin-2-yl)-2-(3-(1-(3-methoxypropyl)-1H-pyrazol-4-yl)phenyl)acetamide] | 62 | 98 |
| CC1(Cn2cc(-c3cccc(CC(=O)Nc4cc(N5CC[C@@](C#N)(C6CC6)C5=O)ccn4)c3)cn2)COC1 [Example 77, N-(4-((3S)-3-cyano-3-cyclopropyl-2-oxopyrrolidin-1-yl)pyridin-2-yl)-2-(3-(1-((3-methyloxetan-3-yl)methyl)-1H-pyrazol-4-yl)phenyl)acetamide] | 63 | 98 |
| N#C[C@@]1(C2CC2)CCN(c2ccnc(NC(=O)Cc3cccc(-c4cn[nH]c4)c3)c2)C1=O [Example 56, N-(4-((3S)-3-cyano-3-cyclopropyl-2-oxopyrrolidin-1-yl)pyridin-2-yl)-2-(3-(1H-pyrazol-4-yl)phenyl)acetamide] | 64 | 98 |

From patent US10800754B2, “Heterocyclic amide compound” (TAKEDA PHARMACEUTICAL COMPANY LIMITED, priority 2016, dated 2020)
